# Data published in patent publication US11957652B2, “Compositions comprising citrulline and leucine and their use in the treatment of diabetes and metabolic syndrome” (SOCIÉTÉ DES PRODUITS NESTLÉ S.A., priority 2013, dated 2024).
# Test system: rats fed a high fat diet
# Assay: Fasting glucose and insulin plasma levels in rats fed a high fat diet
# Format: in vivo, rat
# Conditions: rats on high fat diet, 1 g/kg daily of citrulline or leucine, or 1.0 g/kg leucine and 1.0 g/kg citrulline; for fasting plasma glucose levels (glycemia): compared to high fat diet alone (FIG. 1); for fasting insulin plasma levels (insulinemia): compared to high fat diet alone and to chow-fed healthy rats (FIG. 2)
# Method: Compositions comprising citrulline, leucine, or […] were tested for their effect on fasting glucose levels and insulin plasma levels. Briefly, rats were split into six groups and fed either chow, a high fat diet, a high fat diet with 1 g/kg leucine daily, a high fat diet with 0.2 g/kg citrulline, a high fat diet with 1 g/kg citrulline daily or a high fat diet with a composition comprising 1.0 g/kg leucine and 1.0 g/kg citrulline.
compound,measurement,value
CC(C)C[C@H](N)C(=O)O [leucine],fasting plasma glucose levels (glycemia),decrease
same,fasting insulin plasma levels (insulinemia),decrease
NC(=O)NCCC[C@H](N)C(=O)O [citrulline],fasting plasma glucose levels (glycemia),decrease
same,fasting insulin plasma levels (insulinemia),decrease
